Assay results reported in patent US9952300B2, “Dynamic contrast enhanced MRI method and agents for the assessment of the macromolecular transport within pathologic tissues” (BRACCO IMAGING S.P.A., priority 2012, dated 2018).
“And” between values parts separate entries of the source, which are not always exact repeats. Equal values may be shown once.

Experiments:
[1] = system: PC-3 human prostate adenocarcinoma tumor; assay: DCE-MRI of contrast agent kinetics in PC-3 tumors of Axitinib- or vehicle-treated mice (Example 3); format: in vivo, NCR athymic nude mice; settings: contrast agent 100 μmol/kg i.v., one value per animal, trisodium salt
Excerpt: The comparative test has been performed using NCR athymic nude mice implanted with PC-3 cells (a human prostate cancer line) and treated with Axitinib®, a VEGFRs inhibitor, (to modulate the tumor vascular permeability) by a protocol which timing is for instance schematized in FIG. 1. Scope of the test was to compare the image-based analysis of the albumin distribution in a human tumor model as extracted from the analysis of a time-serie of MRI images (with spatial resolution of around 110 μm) acquired with the method of the invention after injection of B22956/1 as contrast agent, and the distribution of FITC-BSA (Fluorescent isothiocyanate Bovine Serum Albumin) albumin inside and outside vessels histologically determined from fluorescent microscopy images on a scale of microns.
In particular, the trans-endothelial permeability (K^Trans) and the fractional plasma volume (fPV) were calculated from dynamic MR data by application of a bi-compartmental pharmacokinetic model, while the Initial Area Under the Curve (IAUCT) was calculated in several time windows, typically comprised between the contrast agent administration and the end of the MRI acquisition. The macromolecular penetration in tumors was, then, probed by fluorescently labelled Bovine Serum Albumin administered via tail vein after the last MRI session. Microscopic images were used to quantify the percentage of area stained by fluorescent albumin in the tumor, as a measure of the blood vessel density, using an automatic thresholding method. The albumin extravasation in the tumor extravascular space was assessed based on the fluorescence found out of the blood vessels from histological samples taken from both of tumor rim and core, for instance as schematized in FIG. 2. In particular, the albumin florescence was averaged over all pixels at a given distance from the nearest vessel and stored as a function of distance from the vessels walls, by use of an optimized procedure, for instance schematized in FIG. 3, providing both a quantification of the availability of the albumin in the extravascular space of the concerned tumor, namely the amount of the extravasated FITC-Albumin, and the decay of its concentration over the distance x from a nearest vessel, or, in other words, its actual distribution and dilution within the extracellular spaces (for instance as schematized in FIG. 4).
Human prostate adenocarcinoma cells (PC-3) were supplied by ATCC (American Type Culture Collection) and grown in Hams F-12 medium supplemented with 10% foetal bovine serum, 2 mM glutamine, 100 IU/mL penicillin and 100 μg/mL streptomycin (all from Lonza, Verviers, Belgium). […] Tumour development was followed by palpation and measured by calliper every 2-3 days until the end of the experiment. […]

[2] = system: WM1552/5 melanoma xenografts; assay: DCE-MRI with B22956/1 in WM1552/5 melanoma xenografts 24 h after PTX (Example 4); format: in vivo, NCr-nu/nu mice; settings: WM1552/5 tumor rim and core, 24 h after PTX 20 mg/kg i.v.
Excerpt: Indeed, the potential of non-covalent protein binding contrast agents according the invention to provide in vivo suitable estimates of the effect promoted by a therapeutic agent such as, for instance, an EPR-enhancing agent, i.e. an agent devoted to enhance the uptake of the co-administered macromolecular drug in the tumor area, has been investigated by means of Dynamic Contrast Enhanced MRI tests performed in vivo with B22956/1, used as representative agent according to the invention, on melanoma cancer model xenografts in nude mice treated with vehicle or Paclitaxel (PTX). […] Jain, R. K. & Stylianopoulos, T. Nat. Rev. Clin. Oncol. 2010, 7: 653-664).
Six- to eight-week-old female NCr-nu/nu mice, obtained from Harlan (Correzzana, Italy) were maintained under specific pathogen-free conditions and handled using aseptic procedures throughout the whole study. […]
PTX- and vehicle-treated nude mice bearing WM1552/5 melanoma xenografts (N=4 mice per group) were analyzed by DCE-MRI 24 h after PTX administration. […] Pre-contrast T1 values in tumors were measured using a multislice variable flip-angle FLASH. […]
Differences in the kinetics of distribution of the contrast agent (DCE-MRI) were analyzed by Mann Whitney U test.

Compound	kTrans (Transfer Constant) ([1]; tumor core)	kTrans (Transfer Constant) ([1]; tumor rim)	K^trans measured with B22956/1, pre-treated versus vehicle [2]	fractional plasma volume fPV (%) measured with B22956/1, pre-treated versus vehicle [2]
C[C@H](CCC(=O)[O-])[C@H]1CC[C@H]2[C@@H]3CC[C@@H]4C[C@@H](NC(=O)CC[C@@H](C(=O)[O-])N(CCN(CC(=O)[O-])CC(=O)[O-])CCN(CC(=O)[O-])CC(=O)[O-])CC[C@]4(C)[C@H]3C[C@H](O)[C@]12C.[Gd+3].[Na+].[Na+].[Na+] [B22956/1, Gadocoletic acid trisodium salt]	1.09 mL\(min × g) × 100 and 0.98 mL\(min × g) × 100 (2×) and 0.40 mL\(min × g) × 100 (2×) and 1.81 mL\(min × g) × 100 and 0.31 mL\(min × g) × 100 and 0.95 mL\(min × g) × 100 and 0.44 mL\(min × g) × 100 and 1.77 mL\(min × g) × 100 and 1.82 mL\(min × g) × 100 and 1.57 mL\(min × g) × 100 and 1.29 mL\(min × g) × 100 and 1.85 mL\(min × g) × 100 and 1.20 mL\(min × g) × 100	2.45 mL\(min × g) × 100 and 1.91 mL\(min × g) × 100 (2×) and 0.83 mL\(min × g) × 100 and 2.30 mL\(min × g) × 100 and 1.06 mL\(min × g) × 100 and 1.76 mL\(min × g) × 100 and 1.33 mL\(min × g) × 100 and 3.00 mL\(min × g) × 100 and 1.68 mL\(min × g) × 100 and 2.77 mL\(min × g) × 100 and 2.15 mL\(min × g) × 100 and 2.37 mL\(min × g) × 100 and 1.17 mL\(min × g) × 100 and 3.22 mL\(min × g) × 100 and 2.24 mL\(min × g) × 100		
CC(=O)O[C@H]1C(=O)[C@@]2(C)[C@H]([C@H](OC(=O)c3ccccc3)[C@]3(O)C[C@H](OC(=O)[C@H](O)[C@@H](NC(=O)c4ccccc4)c4ccccc4)C(C)=C1C3(C)C)[C@]1(OC(C)=O)CO[C@@H]1C[C@@H]2O [PTX, Paclitaxel]			statistically significant increase	statistically significant increase
